Reference: patent publication US11678665B2, “Pyrazine-4-carbamate or -urea derivatives as herbicides” (Syngenta Participations AG, priority 2017, dated 2023)

Key:
Format in all cases: in vivo
[1] = test system: Echinochloa crus-galli (ECHCG); assay: Pre-emergence herbicidal activity, ECHCG; conditions: 1000 g/ha, sprayed pre-emergence, evaluated after 13 days, damage score 0-5
Method: (§1) Seeds of a variety of test species were sown in standard soil in pots: Triticum aestivium (TRZAW), Avena fatua (AVEFA), Alopecurus myosuroides (ALOMY), Echinochloa crus-galli (ECHCG), Lolium perenne (LOLPE), and Setaria faberi (SETFA). After cultivation for one day (pre-emergence) under controlled conditions in a glasshouse (at 24/16° C., day/night; 14 hours light; 65% humidity), the plants were sprayed with an aqueous spray solution derived from the formulation of the technical active ingredient in acetone/water (50:50) solution containing 0.5% Tween 20 (polyoxyethelyene sorbitan monolaurate, CAS RN 9005-64-5). The test plants were then grown in a glasshouse under controlled conditions (at 24/16° C., day/night; 14 hours light; 65% humidity) and watered twice daily. After 13 days, the test was evaluated (5=total damage to plant; 0=no damage to plant).

Lolium perenne (LOLPE) [2] = assay: Pre-emergence herbicidal activity, LOLPE; design: key: 5=total damage to plant; 0=no damage to plant; conditions: 1000 g/ha, sprayed pre-emergence, evaluated after 13 days, damage score 0-5
Method: as §1

Setaria faberi (SETFA) [3] = assay: Pre-emergence herbicidal activity, SETFA; conditions: 1000 g/ha, sprayed pre-emergence, evaluated after 13 days, damage score 0-5
Method: as §1

Avena fatua (AVEFA) [4] = assay: Pre-emergence herbicidal activity, AVEFA; design: key: 5=total damage to plant; 0=no damage to plant; conditions: 1000 g/ha, sprayed pre-emergence, evaluated after 13 days, damage score 0-5
Method: as §1

[5] = test system: Alopecurus myosuroides (ALOMY); assay: Pre-emergence herbicidal activity, ALOMY; design: key: 5=total damage to plant; 0=no damage to plant; conditions: 1000 g/ha, sprayed pre-emergence, evaluated after 13 days, damage score 0-5
Method: as §1

[6] = test system: Triticum aestivium (TRZAW); assay: Pre-emergence herbicidal activity, TRZAW; design: key: 5=total damage to plant; 0=no damage to plant; conditions: 1000 g/ha, sprayed pre-emergence, evaluated after 13 days, damage score 0-5
Method: as §1

[7] = test system: Echinochloa crus-galli (ECHCG); assay: Post-emergence herbicidal activity, ECHCG; design: key: 5=total damage to plant; 0=no damage to plant; conditions: 1000 g/ha, sprayed post-emergence (8 days cultivation), evaluated after 13 days, damage score 0-5
Method: (§2) Seeds of a variety of test species were sown in standard soil in pots: Triticum aestivium (TRZAW), Avena fatua (AVEFA), Alopecurus myosuroides (ALOMY), Echinochloa crus-galli (ECHCG), Lolium perenne (LOLPE), and Setaria faberi (SETFA). After 8 days cultivation (post-emergence) under controlled conditions in a glasshouse (at 24/16° C., day/night; 14 hours light; 65% humidity), the plants were sprayed with an aqueous spray solution derived from the formulation of the technical active ingredient in acetone/water (50:50) solution containing 0.5% Tween 20 (polyoxyethelyene sorbitan monolaurate, CAS RN 9005-64-5). The test plants were then grown in a glasshouse under controlled conditions (at 24/16° C., day/night; 14 hours light; 65% humidity) and watered twice daily. After 13 days, the test was evaluated (5=total damage to plant; 0=no damage to plant).

Lolium perenne (LOLPE) [8] = assay: Post-emergence herbicidal activity, LOLPE; design: key: 5=total damage to plant; 0=no damage to plant; conditions: 1000 g/ha, sprayed post-emergence (8 days cultivation), evaluated after 13 days, damage score 0-5
Method: as §2

Setaria faberi (SETFA) [9] = assay: Post-emergence herbicidal activity, SETFA; design: key: 5=total damage to plant; 0=no damage to plant; conditions: 1000 g/ha, sprayed post-emergence (8 days cultivation), evaluated after 13 days, damage score 0-5
Method: as §2

Avena fatua (AVEFA) [10] = assay: Post-emergence herbicidal activity, AVEFA; conditions: 1000 g/ha, sprayed post-emergence (8 days cultivation), evaluated after 13 days, damage score 0-5
Method: as §2

[11] = test system: Alopecurus myosuroides (ALOMY); assay: Post-emergence herbicidal activity, ALOMY; design: key: 5=total damage to plant; 0=no damage to plant; conditions: 1000 g/ha, sprayed post-emergence (8 days cultivation), evaluated after 13 days, damage score 0-5
Method: as §2

[12] = test system: Triticum aestivium (TRZAW); assay: Post-emergence herbicidal activity, TRZAW; design: key: 5=total damage to plant; 0=no damage to plant; conditions: 1000 g/ha, sprayed post-emergence (8 days cultivation), evaluated after 13 days, damage score 0-5
Method: as §2

Row | Compound | Control of weed species after pre-emergence application: ECHCG [1] | Control of weed species after pre-emergence application: LOLPE (Lolium perenne (LOLPE) [2]) | Control of weed species after pre-emergence application: SETFA (Setaria faberi (SETFA) [3]) | Control of weed species after pre-emergence application: AVEFA (Avena fatua (AVEFA) [4]) | Control of weed species after pre-emergence application: ALOMY [5] | Control of weed species after pre-emergence application: TRAZW [6] | Control of weed species after post-emergence application: ECHCG [7] | Control of weed species after post-emergence application: LOLPE (Lolium perenne (LOLPE) [8]) | Control of weed species after post-emergence application: SETFA (Setaria faberi (SETFA) [9]) | Control of weed species after post-emergence application: AVEFA (Avena fatua (AVEFA) [10]) | Control of weed species after post-emergence application: ALOMY [11] | Control of weed species after post-emergence application: TRAZW [12]
1 | COCCC(=O)N(C(=O)CCOC)c1ncc(-c2cncc(F)c2)nc1C(F)(F)F [Compound I11] | 3 | 0 | 4 | 0 | 0 | 1 | 5 | 1 | 5 | 4 | 0 | 1
2 | COCCC(=O)Nc1ncc(-c2cncc(F)c2)nc1C [Compound I10] | 2 | 0 | 2 | 0 | 0 | 0 | 3 | 0 | 2 | 1 | 0 | 0
3 | CC(=O)N(C(C)=O)c1ncc(-c2cncc(F)c2)nc1C(F)(F)F [Compound I4, 2-(diacetylamino)-3-trifluoromethyl-5-(5-fluoropyrid-3-yl)pyrazine] | 3 | 0 | 4 | 1 | 0 | 3 | 3 | 1 | 4 | 2 | 0 | 0
4 | CC(=O)Nc1ncc(-c2cncc(F)c2)nc1C [Compound I9] | 1 | 0 | 4 | 0 | 0 | 0 | 2 | 0 | 3 | 2 | 0 | 0
5 | CCC(=O)N(C(=O)CC)c1ncc(-c2cncc(F)c2)nc1C(F)(F)F [Compound I1] | 2 | 1 | 3 | 1 | 0 | 0 | 4 | 1 | 4 | 2 | 0 | 0
6 | CC(=O)Nc1ncc(-c2cncc(F)c2)nc1C(F)(F)F [Compound I3, 2-(acetylamino)-3-trifluoromethyl-5-(5-fluoropyrid-3-yl)pyrazine] | 3 | 0 | 4 | 1 | 0 | 0 | 3 | 1 | 4 | 3 | 1 | 1
7 | CCC(=O)N(C(=O)CC)c1ncc(-c2cncnc2)nc1C(F)(F)F [Compound I12] | 2 | 0 | 3 | 1 | 0 | 0 | 3 | 1 | 4 | 2 | 1 | 1
8 | CCC(=O)Nc1ncc(-c2cncc(F)c2)nc1C [Compound I2] | 2 | 0 | 3 | 0 | 0 | 0 | 4 | 0 | 4 | 1 | 0 | 0
9 | CC(=O)N(C(C)=O)c1ncc(-c2cncc(F)c2)nc1C [Compound I5, 2-(diacetylamino)-3-methyl-5-(5-fluoropyrid-3-yl)pyrazine] | 2 | 1 | 3 | 0 | 0 | 0 | 2 | 1 |  | 1 | 0 | 1
